Reference: patent publication US20220009906A1, “ISOINDOLIN-1-ONE DERIVATIVES USEFUL AS GRK2 INHIBITORS” (priority 2020, published 2022)

molecular target: T1, GRK2 (Homo sapiens, UniProt P25098); assay: hGRK2 LANCE Ultra In Vitro Assay; type: biochemical; conditions: Biological Example 1 GRK2 Lancer IC50 (μM), 10 nM GRK2; 30 or 600 μM ATP (not stated which); multiple measurements listed individually
T1 sequence (P25098 1-689): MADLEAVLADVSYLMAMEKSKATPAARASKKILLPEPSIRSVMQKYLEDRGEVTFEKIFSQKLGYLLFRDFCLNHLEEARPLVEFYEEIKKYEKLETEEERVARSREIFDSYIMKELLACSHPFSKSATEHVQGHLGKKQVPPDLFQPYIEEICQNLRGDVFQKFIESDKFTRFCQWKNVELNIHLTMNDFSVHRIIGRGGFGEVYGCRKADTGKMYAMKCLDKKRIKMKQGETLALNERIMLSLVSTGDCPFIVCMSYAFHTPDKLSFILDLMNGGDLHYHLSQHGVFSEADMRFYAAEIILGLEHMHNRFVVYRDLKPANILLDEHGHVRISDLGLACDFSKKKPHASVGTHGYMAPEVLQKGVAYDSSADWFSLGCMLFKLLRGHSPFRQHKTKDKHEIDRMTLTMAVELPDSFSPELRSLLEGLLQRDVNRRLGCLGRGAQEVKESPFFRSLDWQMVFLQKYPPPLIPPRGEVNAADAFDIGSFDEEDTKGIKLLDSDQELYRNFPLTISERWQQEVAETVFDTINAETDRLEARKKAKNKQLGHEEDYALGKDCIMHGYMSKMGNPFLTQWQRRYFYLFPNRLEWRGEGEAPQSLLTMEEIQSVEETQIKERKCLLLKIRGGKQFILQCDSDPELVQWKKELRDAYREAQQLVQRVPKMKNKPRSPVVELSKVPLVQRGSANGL
Experimental: hGRK2 LANCE Ultra In Vitro Assay
G-protein coupled receptor kinases (GR Kinases) desensitize activated G-protein coupled receptors (GPCRs), by phosphorylation of cytoplasmic loops or carboxyl-terminal tails of GPCRs. GRK2 is one of the 6 different GR kinases and is implicated in heart failure and diabetes.
This assay is sensitive and requires as low as 10 nM enzyme, in a total volume of 10 μL. In addition, the ATP concentration can be varied over a broad range, without interfering with the assay or changing the assay condition. […] Testing inhibitors routinely at both high and low ATP concentrations also enables identification of potential non-ATP competitive inhibitors.
Paroxetine was used as the reference compound in this assay.
Test compounds were dissolved in DMSO at 1 mM and were 3-fold serial diluted. The compound DMSO solutions were then added (100 nL) into a plate well using an acoustic dispenser. To each well was then added 20 nM GRK2 (5 μL) in assay buffer (20 mM HEPES, pH 7.5, 10 mM MgCl2, 0.001% Tween-20®). The plate was sealed and centrifuged at 1000 rpm for 1 min. The plate and wells containing a mixture of GRK2 and test compound were incubated at ambient temperature for 30 min (prior to initializing the enzymatic reaction).
Enzyme reactions were initiated by the addition of 4.9 μL Substrates/Eu-Ab mix to each well. […] Final concentrations of reagents in the assays were as follows: 20 mM HEPES, pH 7.5; 10 mM MgCl2; 0.001% Tween-20® (w/v); 30 or 600 μM ATP; 200 nM ULight-peptide; 4 nM Eu-Ab; 10 nM GRK2; and 1% DMSO.
The plates were sealed and centrifuged at 1000 rpm for 1 min. For reactions at low ATP concentration (30 μM), reaction mixtures were incubated at ambient temperature for 120 min. For reactions at high ATP concentration (600 μM), reaction mixtures were incubated at ambient temperature for 60 min.
The enzyme reactions were quenched by addition of 10 μL of 12 mM EDTA in 1× LANCE detection solution to each well. The plates were then incubated at ambient temperature for 30 min. Time-resolved fluorescence signal of reactions were read on an EnVision or PHERAstar plate reader with the following parameters: Excitation wavelength=337 nm; emission wavelength (donor)=620 nm; emission wavelength (acceptor)=665 nm.
The raw HTRF data were converted to % active as follows:
% active=(sample−NC)/(PC−NC)*100
where NC is the mean of negative control (reactions without GRK2), and PC is the mean of positive control (reactions with GRK2 but without inhibitor). IC50 values were determined from a 4-parameter fit, using the following equation:
Y=Bottom+(Top−Bottom)/(1+10^((Log IC50−X)*Hill slope))
where X=log10 of the compound concentration.

Row | SMILES | IC50
1 | COc1cccc(CN2C(=O)c3cc(-c4cn[nH]c4)ccc3C2CC(=O)O)c1 (stereo not drawn) [Compound 61, 2-(2-(3-Methoxybenzyl)-3-oxo-5-(1H-pyrazol-4-yl)isoindolin-1-yl)acetic acid] | 0.012 µM
2 | COc1cccc(C(COCC(N)=O)N2Cc3ccc(-c4cn[nH]c4)cc3C2=O)c1 (stereo not drawn) [Compound 62, 2-(2-(3-Methoxyphenyl)-2-(1-oxo-6-(1H-pyrazol-4-yl)isoindolin-2-yl)ethoxy)acetamide] | 0.007 µM
3 | COc1cccc(C(COCCO)N2Cc3ccc(-c4cn[nH]c4)cc3C2=O)c1 (stereo not drawn) [Compound 63, 2-(2-(2-Hydroxyethoxy)-1-(3-methoxyphenyl)ethyl)-6-(1H-pyrazol-4-yl)isoindolin-1-one] | 0.008 µM
4 | COc1cccc(C(CO)N2Cc3ccc(-c4ccnc(N)n4)cc3C2=O)c1 (stereo not drawn) [Compound 64, 6-(2-aminopyrimidin-4-yl)-2-(2-hydroxy-1-(3-methoxyphenyl)ethyl)isoindolin-1-one] | 0.047 µM
5 | CCOc1cccc(CN2C(=O)c3cc(-c4cn[nH]c4)ccc3C2CC#N)c1 (stereo not drawn) [Compound 65, 2-(2-(3-ethoxybenzyl)-3-oxo-5-(1H-pyrazol-4-yl)isoindolin-1-yl)acetonitrile] | 0.039 µM
6 | COc1cccc(CN2Cc3ccc(-c4ccncc4)cc3C2=O)c1 [Compound 66] | 0.023 µM
7 | CC(C)Oc1cccc(CN2Cc3ccc(-c4cn[nH]c4)cc3C2=O)c1 [Compound 69, 2-(3-Isopropoxybenzyl)-6-(1H-pyrazol-4-yl)isoindolin-1-one] | 0.006 µM
8 | COc1cccc(C(C(=O)O)N2Cc3ccc(-c4cn[nH]c4)cc3C2=O)c1 (stereo not drawn) [Compound 71] | 0.815 µM
9 | COC(=O)[C@H](c1cccc(OC)c1)N1Cc2ccc(-c3cn[nH]c3)cc2C1=O [Compound 72] | 0.13 µM
10 | CCOc1cccc([C@H](C(=O)OC)N2Cc3ccc(-c4cn[nH]c4)cc3C2=O)c1 [Compound 73] | 1.39 µM
11 | CCOc1cccc([C@H](C(=O)O)N2Cc3ccc(-c4cn[nH]c4)cc3C2=O)c1 [Compound 74] | 4.2 µM
12 | COc1cccc(CN2C(=O)c3cc(-c4cn[nH]c4)ccc3C23CCOC3)c1 (stereo not drawn) [Compound 75, 2′-(3-methoxybenzyl)-5′-(1H-pyrazol-4-yl)-4,5-dihydro-2H-spiro[furan-3,1′-isoindolin]-3′-one] | 0.007 µM
13 | CCOc1cccc([C@H](C(=O)OC)N2Cc3ccc(-c4ccncc4)cc3C2=O)c1 [Compound 76] | > 20 µM
14 | CCOc1cccc(C(C(=O)O)N2Cc3ccc(-c4ccncc4)cc3C2=O)c1 (stereo not drawn) [Compound 77] | > 20 µM
15 | COc1cccc(C(CO)N2C(=O)c3cc(-c4cn[nH]c4)ccc3C23CC=CC3)c1 (stereo not drawn) [Compound 78, 2′-(2-hydroxy-1-(3-methoxyphenyl)ethyl)-5′-(1H-pyrazol-4-yl)spiro[cyclopentane-1,1′-isoindolin]-3-en-3′-one] | 0.06 µM
16 | COc1cccc(C(CO)N2C(=O)c3cc(-c4cn[nH]c4)ccc3C23CCCC3)c1 (stereo not drawn) [Compound 79, 2′-(2-hydroxy-1-(3-methoxyphenyl)ethyl)-5′-(1H-pyrazol-4-yl)spiro[cyclopentane-1,1′-isoindolin]-3′-one] | 0.03 µM
17 | COc1cccc(C(CN(C)C)N2Cc3ccc(-c4cn[nH]c4)cc3C2=O)c1 (stereo not drawn) [Compound 80, 2-(2-(dimethylamino)-1-(3-methoxyphenyl)ethyl)-6-(1H-pyrazol-4-yl)isoindolin-1-one] | 0.044 µM
18 | COc1cccc(CN2C(=O)c3cc(-c4cn[nH]c4)ccc3C23CCCCC3)c1 [Compound 81, 2′-(3-methoxybenzyl)-5′-(1H-pyrazol-4-yl)spiro[cyclohexane-1,1′-isoindolin]-3′-one] | 0.011 µM

Row | SMILES | IC50
19 | COc1cccc(CN2C(=O)c3cc(-c4cn[nH]c4)ccc3C23CCOCC3)c1 [Compound 82, 2-(3-methoxybenzyl)-5-(1H-pyrazol-4-yl)-2′,3′,5′,6′-tetrahydrospiro[isoindoline-1,4′-pyran]-3-one] | 0.007 µM
20 | COc1cccc(C(CO)N2Cc3ccc(-c4cccnc4)cc3C2=O)c1 (stereo not drawn) [Compound 83, 2-(2-hydroxy-1-(3-methoxyphenyl)ethyl)-6-(pyridin-3-yl)isoindolin-1-one] | 0.024 µM
21 | COc1cccc(C(Cc2nnn[nH]2)N2Cc3ccc(-c4cn[nH]c4)cc3C2=O)c1 (stereo not drawn) [Compound 84] | 0.167 µM
22 | O=C1c2cc(-c3cn[nH]c3)ccc2CN1Cc1cccc(OCc2nn[nH]n2)c1 [Compound 88, 2-(3-((2H-Tetrazol-5-yl)methoxy)benzyl)-6-(1H-pyrazol-4-yl)isoindolin-1-one] | 0.029 µM
23 | COc1cccc(CN2C(=O)c3cc(-c4cn[nH]c4)ccc3C23CCc2c(O)cccc23)c1 (stereo not drawn) [Compound 89, 4-hydroxy-2′-(3-methoxybenzyl)-5′-(1H-pyrazol-4-yl)-2,3-dihydrospiro[indene-1,1′-isoindolin]-3′-one] | 0.144 µM
24 | O=C1c2cc(-c3cn[nH]c3)ccc2CN1Cc1cccc(OC2CCOC2)c1 (stereo not drawn) [Compound 90] | 0.137 µM
25 | O=C1c2cc(-c3cn[nH]c3)ccc2CN1Cc1cccc(OC2COC2)c1 [Compound 91] | 0.116 µM
26 | COc1cccc(C(C(=O)c2ccccc2)N2Cc3ccc(-c4cn[nH]c4)cc3C2=O)c1 (stereo not drawn) [Compound 92, 2-(1-(3-methoxyphenyl)-2-oxo-2-phenylethyl)-6-(1H-pyrazol-4-yl)isoindolin-1-one] | 5.01 µM
27 | COc1cccc(CN2C(=O)c3cc(-c4cn[nH]c4)ccc3C2Cc2nn[nH]n2)c1 (stereo not drawn) [Compound 93, 3-((2H-tetrazol-5-yl)methyl)-2-(3-methoxybenzyl)-6-(1H-pyrazol-4-yl)isoindolin-1-one] | 0.02 µM
28 | COc1cccc(C(c2nn[nH]n2)N2Cc3ccc(-c4cn[nH]c4)cc3C2=O)c1 (stereo not drawn) [Compound 94, 2-((3-methoxyphenyl)(2H-tetrazol-5-yl)methyl)-6-(1H-pyrazol-4-yl)isoindolin-1-one] | 0.652 µM
29 | COc1cccc([C@@H](C2CC2)N2Cc3ccc(-c4cn[nH]c4)cc3C2=O)c1 [Compound 96] | 0.012 µM
30 | COc1cccc(C(CC(=O)O)N2Cc3ccc(-c4cn[nH]c4)cc3C2=O)c1 (stereo not drawn) [Compound 100, 3-(3-methoxyphenyl)-3-(1-oxo-6-(1H-pyrazol-4-yl)isoindolin-2-yl)propanoic acid] | 6.24 µM
31 | COc1cccc(CN2C(=O)c3cc(-c4cn[nH]c4)ccc3C23CCC(O)C3O)c1 (stereo not drawn) [Compound 102, 2,3-dihydroxy-2′-(3-methoxybenzyl)-5′-(1H-pyrazol-4-yl)spiro[cyclopentane-1,1′-isoindolin]-3′-one] | 0.006 µM
32 | O=C1c2cc(-c3cn[nH]c3)ccc2CN1Cc1cccc(Oc2ccccc2)c1 [Compound 103] | 0.033 µM
33 | CC(c1cccc(Oc2ccccc2)c1)N1Cc2ccc(-c3cn[nH]c3)cc2C1=O (stereo not drawn) [Compound 104] | > 11 µM
34 | COc1ccnc(CN2Cc3ccc(-c4cn[nH]c4)cc3C2=O)c1 [Compound 105] | 0.071 µM
35 | O=C1c2cc(-c3ccncn3)ccc2CN1Cc1cccc(Oc2ccccc2)c1 [Compound 106] | 0.419 µM
36 | COc1cccc(CN2C(=O)c3cc(-c4cn[nH]c4)ccc3C23CCC(C(=O)O)C3)c1 (stereo not drawn) [Compound 107, 2′-(3-methoxybenzyl)-3′-oxo-5′-(1H-pyrazol-4-yl)spiro[cyclopentane-1,1′-isoindoline]-3-carboxylic acid] | 0.005 µM
